Target: Btk enzyme (His-Btk) (Homo sapiens (Human), UniProt Q06187)
Experiment: Btk enzyme activity, IMAP fluorescence polarization assay
Conditions: 60 min pre-incubation, 5 μM ATP, bin bounds in nM

Sequence of Btk enzyme (His-Btk) (Q06187 whole entry): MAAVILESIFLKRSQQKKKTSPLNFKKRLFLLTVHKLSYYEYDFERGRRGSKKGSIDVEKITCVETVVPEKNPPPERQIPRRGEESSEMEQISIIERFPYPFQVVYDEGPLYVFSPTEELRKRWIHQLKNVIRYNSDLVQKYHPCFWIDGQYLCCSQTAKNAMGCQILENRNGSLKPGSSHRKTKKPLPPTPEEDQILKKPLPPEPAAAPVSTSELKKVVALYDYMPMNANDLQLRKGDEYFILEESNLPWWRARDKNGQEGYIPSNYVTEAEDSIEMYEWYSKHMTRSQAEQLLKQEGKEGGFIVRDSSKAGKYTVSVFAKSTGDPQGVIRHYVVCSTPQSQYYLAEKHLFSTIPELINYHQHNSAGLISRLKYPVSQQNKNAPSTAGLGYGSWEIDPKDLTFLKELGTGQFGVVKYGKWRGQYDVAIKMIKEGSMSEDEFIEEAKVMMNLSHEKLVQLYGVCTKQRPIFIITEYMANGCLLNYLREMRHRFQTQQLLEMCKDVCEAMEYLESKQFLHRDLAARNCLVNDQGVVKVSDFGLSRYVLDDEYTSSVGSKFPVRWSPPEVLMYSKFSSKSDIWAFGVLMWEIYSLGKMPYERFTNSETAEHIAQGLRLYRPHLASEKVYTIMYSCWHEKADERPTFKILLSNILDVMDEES

SMILES | EC50 Btk activity values
CCc1ccnc(NC(=O)c2ccc(-c3nc([C@@H]4CCCN4C(=O)/C=C/COC)n4ccnc(N)c34)cc2)c1 [Example 11, (S,E)-4-(8-Amino-3-(1-(4-methoxybut-2-enoyl)pyrrolidin-2-yl)-imidazo[1,5-a]pyrazin-1-yl)-N-(4-ethylpyridin-2-yl)benzamide] | <100 nM
CN(C)C/C=C/C(=O)N1CCC[C@H]1c1nc(-c2ccc(C(=O)Nc3cc(F)ccn3)cc2)c2c(N)nccn12 [Example 7, (S,E)-4-(8-Amino-3-(1-(4-(dimethylamino)but-2-enoyl)pyrrolidin-2-yl)imidazo[1,5-a]pyrazin-1-yl)-N-(4-fluoropyridin-2-yl)benzamide] | <100 nM
Nc1nccn2c([C@@H]3CCCN3C(=O)c3ccnc(Cl)n3)nc(-c3ccc(C(=O)Nc4nc5c(s4)CCCC5)cc3)c12 [Example 71, (S)-4-(8-amino-3-(1-(2-chloropyrimidine-4-carbonyl)pyrrolidin-2-yl)imidazo[1,5-a]pyrazin-1-yl)-N-(4,5,6,7-tetrahydrobenzo[d]thiazol-2-yl)benzamide] | <100 nM
COc1cc(-c2nc([C@@H]3CCCN3C(=O)c3ccnc(Cl)n3)n3ccnc(N)c23)ccc1C(=O)Nc1ccccn1 [Example 83, (S)-4-(8-amino-3-(1-(2-chloropyrimidine-4-carbonyl)pyrrolidin-2-yl)imidazo[1,5-a]pyrazin-1-yl)-2-methoxy-N-(pyridin-2-yl)benzamide] | <100 nM

Continued, values first:

EC50 Btk activity values | SMILES
<100 nM | COC/C=C/C(=O)N1CCC[C@H]1c1nc(-c2ccc(C(=O)Nc3ccccn3)c(OC)c2)c2c(N)nccn12 [Example 103, (S,E)-4-(8-amino-3-(1-(4-methoxybut-2-enoyl)pyrrolidin-2-yl)imidazo[1,5-a]pyrazin-1-yl)-2-methoxy-N-(pyridin-2-yl)benzamide]
<100 nM | CN(C)C/C=C/C(=O)NCc1nc(-c2ccc(C(=O)Nc3ccccn3)cc2)c2c(N)nccn12 [Example 69, (E)-4-(8-amino-3-((4-(dimethylamino)but-2-enamido)methyl)imidazo[1,5-a]pyrazin-1-yl)-N-(pyridin-2-yl)benzamide]

Same assay, conditions: 60 min pre-incubation, 5 μM ATP, bin bounds in μM

SMILES | EC50 Btk activity values
COC/C=C/C(=O)N1CCC[C@H]1c1nc(-c2ccc(C(=O)Nc3ccccn3)c(F)c2)c2c(N)nccn12 [Example 52] | <1000 nM
COC/C=C/C(=O)N1CCC[C@H]1c1nc(-c2ccc(C(=O)Nc3cc(F)ccn3)cc2)c2c(N)nccn12 [Example 53, (S,E)-4-(8-amino-3-(1-(4-methoxybut-2-enoyl)pyrrolidin-2-yl)imidazo[1,5-a]pyrazin-1-yl)-N-(4-fluoropyridin-2-yl)benzamide] | <1000 nM
C=CC(=O)N1CCCC[C@H]1c1nc(-c2ccc(C(=O)Nc3ccccn3)cc2C)c2c(N)nccn12 [Example 68, 4-(3-((S)-1-acryloylpiperidin-2-yl)-8-aminoimidazo[1,5-a]pyrazin-1-yl)-3-methyl-N-(pyridin-2-yl)benzamide] | <1000 nM

Target: Lck enzyme (Homo sapiens (Human), UniProt P06239)
Sequence (P06239 whole entry): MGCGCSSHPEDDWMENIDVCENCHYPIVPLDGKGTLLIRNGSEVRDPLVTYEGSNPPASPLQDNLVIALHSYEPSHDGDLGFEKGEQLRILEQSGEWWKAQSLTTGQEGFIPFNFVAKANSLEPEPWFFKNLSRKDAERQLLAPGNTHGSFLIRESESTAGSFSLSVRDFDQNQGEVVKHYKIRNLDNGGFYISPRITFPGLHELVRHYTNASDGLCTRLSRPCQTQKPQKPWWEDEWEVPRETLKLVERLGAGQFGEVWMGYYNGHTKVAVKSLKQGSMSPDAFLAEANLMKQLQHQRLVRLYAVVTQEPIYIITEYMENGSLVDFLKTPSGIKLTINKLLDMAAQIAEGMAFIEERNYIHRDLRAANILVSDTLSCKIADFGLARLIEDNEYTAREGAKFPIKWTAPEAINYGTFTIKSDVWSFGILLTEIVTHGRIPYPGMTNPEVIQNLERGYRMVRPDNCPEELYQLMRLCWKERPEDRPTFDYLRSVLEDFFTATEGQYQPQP
Experiment: Lck enzyme activity, IMAP fluorescence polarization assay
Conditions: 60 min pre-incubation, 6 μM ATP, bin bounds in μM

SMILES | EC50 Lck activity values
CC#CC(=O)N1CCC[C@H]1c1nc(-c2ccc(C(=O)Nc3cc(-c4ccccc4)ccn3)cc2)c2c(N)nccn12 [Example 132, (S)-4-(8-amino-3-(1-but-2-ynoylpyrrolidin-2-yl)imidazo[1,5-a]pyrazin-1-yl)-N-(4-phenylpyridin-2-yl)benzamide] | <1 µM
C=CC(=O)N1CCC[C@H]1c1nc(-c2ccc(C(=O)Nc3cc(C#N)ccn3)cc2)c2c(N)nccn12 [Example 122, (S)-4-(3-(1-acryloylpyrrolidin-2-yl)-8-aminoimidazo[1,5-a]pyrazin-1-yl)-N-(4-cyanopyridin-2-yl)benzamide] | <1 µM
CC#CC(=O)N1CCCC[C@H]1c1nc(-c2ccc(C(=O)Nc3cc(CCC)ccn3)cc2)c2c(N)nccn12 [Example 64, (S)-4-(8-amino-3-(1-but-2-ynoylpiperidin-2-yl)imidazo[1,5-a]pyrazin-1-yl)-N-(4-propylpyridin-2-yl)benzamide] | <1 µM

From patent publication US10934296B2, “4-imidazopyridazin-1-yl-benzamides as Btk inhibitors” (Merck Sharp & Dohme B.V., priority 2011, dated 2021)
